Values of other authors as cited in patent publication US20220331279A1, “THERAPEUTIC METHODS AND COMPOSITIONS FOR TREATING CANCER USING 6,8-BIS-BENZYLTHIO-OCTANOIC ACID AND A GLUTAMINASE INHIBITOR” (Rafael Pharmaceuticals, lnc., priority 2019, published 2022).

Settings: after IV dosing; Pardee, T. S. et al., Clin. Cancer Res. 2014, 20, 5255-64

O=C(O)CCCCC(CCSCc1ccccc1)SCc1ccccc1 (stereo not shown) [6,8-bis-benzylthio-octanoic acid]
half-life: 1 to 2 h
